# Test results as given in the NIST ThermoML archive (doi:10.1016/j.jct.2016.11.007).
# Numbers after ± are expanded uncertainties.
# Test: mn = molality of the nth substance listed, in mol/kg
# Details: Liquid, Alternating current cell with electrodes
smiles,measurement,setting,value
OB(O)O [boric acid] + O,electrical conductivity,"298.15 K, 19767 kPa, m1 = 0.000461",2.9e-05 ± 2.2e-05 S/m
same,electrical conductivity,"298.15 K, 19767 kPa, m1 = 0.001034",4.34e-05 ± 2.2e-05 S/m
same,electrical conductivity,"298.15 K, 19767 kPa, m1 = 0.002214",7.29e-05 ± 2.2e-05 S/m
same,electrical conductivity,"298.15 K, 19767 kPa, m1 = 0.003558",8.46e-05 ± 2.3e-05 S/m
same,electrical conductivity,"298.15 K, 19767 kPa, m1 = 0.006801",0.000104 ± 2.3e-05 S/m
same,electrical conductivity,"298.15 K, 19767 kPa, m1 = 0.01448",0.000141 ± 1.5e-05 S/m
same,electrical conductivity,"298.15 K, 19767 kPa, m1 = 0.03227",0.000203 ± 2.9e-05 S/m
same,electrical conductivity,"298.15 K, 19767 kPa, m1 = 0.05626",0.000261 ± 5e-05 S/m
same,electrical conductivity,"298.15 K, 19767 kPa, m1 = 0.1313",0.000513 ± 3.1e-05 S/m
same,electrical conductivity,"373.33 K, 19683 kPa, m1 = 0.002216",0.000155 ± 9.3e-06 S/m
same,electrical conductivity,"373.33 K, 19683 kPa, m1 = 0.01449",0.000175 ± 3.5e-05 S/m
same,electrical conductivity,"373.33 K, 19683 kPa, m1 = 0.02381",0.000262 ± 1.6e-05 S/m
same,electrical conductivity,"373.33 K, 19683 kPa, m1 = 0.04334",0.000409 ± 2.5e-05 S/m
same,electrical conductivity,"373.33 K, 19683 kPa, m1 = 0.07421",0.000597 ± 3.6e-05 S/m
same,electrical conductivity,"448.23 K, 19666 kPa, m1 = 0.0004623",0.000302 ± 1.8e-05 S/m
same,electrical conductivity,"448.23 K, 19666 kPa, m1 = 0.00294",0.000347 ± 2.1e-05 S/m
same,electrical conductivity,"448.23 K, 19666 kPa, m1 = 0.00873",0.000421 ± 2.5e-05 S/m
same,electrical conductivity,"448.23 K, 19666 kPa, m1 = 0.01287",0.000473 ± 2.9e-05 S/m
same,electrical conductivity,"448.23 K, 19666 kPa, m1 = 0.0243",0.00059 ± 3.6e-05 S/m
same,electrical conductivity,"448.23 K, 19666 kPa, m1 = 0.03791",0.000706 ± 4.2e-05 S/m
same,electrical conductivity,"448.23 K, 19666 kPa, m1 = 0.07013",0.000939 ± 5.7e-05 S/m
same,electrical conductivity,"448.23 K, 19666 kPa, m1 = 0.1015",0.00114 ± 6.8e-05 S/m
same,electrical conductivity,"523.32 K, 19674 kPa, m1 = 0.0005523",0.000382 ± 2.3e-05 S/m
same,electrical conductivity,"523.32 K, 19674 kPa, m1 = 0.001757",0.000393 ± 2.4e-05 S/m
same,electrical conductivity,"523.32 K, 19674 kPa, m1 = 0.004534",0.000408 ± 2.4e-05 S/m
same,electrical conductivity,"523.32 K, 19674 kPa, m1 = 0.009517",0.000445 ± 2.7e-05 S/m
same,electrical conductivity,"523.32 K, 19674 kPa, m1 = 0.02168",0.000515 ± 3.1e-05 S/m
same,electrical conductivity,"523.32 K, 19674 kPa, m1 = 0.04237",0.000632 ± 3.8e-05 S/m
same,electrical conductivity,"523.32 K, 19674 kPa, m1 = 0.07216",0.00078 ± 4.7e-05 S/m
same,electrical conductivity,"523.32 K, 19674 kPa, m1 = 0.1017",0.000922 ± 5.5e-05 S/m
same,electrical conductivity,"547.2 K, 20900 kPa, m1 = 0.0009361",0.000382 ± 2.3e-05 S/m
same,electrical conductivity,"547.2 K, 20900 kPa, m1 = 0.002371",0.000395 ± 2.4e-05 S/m
same,electrical conductivity,"547.2 K, 20900 kPa, m1 = 0.003744",0.000405 ± 2.5e-05 S/m
same,electrical conductivity,"547.2 K, 20900 kPa, m1 = 0.00586",0.000419 ± 2.6e-05 S/m
same,electrical conductivity,"547.2 K, 20900 kPa, m1 = 0.008845",0.000439 ± 5.1e-05 S/m
same,electrical conductivity,"547.2 K, 20900 kPa, m1 = 0.01163",0.000459 ± 5.2e-05 S/m
same,electrical conductivity,"547.2 K, 20900 kPa, m1 = 0.01515",0.000481 ± 5.1e-05 S/m
same,electrical conductivity,"547.2 K, 20900 kPa, m1 = 0.02429",0.000535 ± 3.2e-05 S/m
same,electrical conductivity,"548.35 K, 19600 kPa, m1 = 0.0008359",0.000374 ± 2.5e-05 S/m
same,electrical conductivity,"548.35 K, 19600 kPa, m1 = 0.002368",0.000385 ± 2.5e-05 S/m
same,electrical conductivity,"548.35 K, 19600 kPa, m1 = 0.005537",0.000406 ± 2.7e-05 S/m
same,electrical conductivity,"548.35 K, 19600 kPa, m1 = 0.01208",0.000447 ± 2.7e-05 S/m
same,electrical conductivity,"548.35 K, 19600 kPa, m1 = 0.02063",0.000495 ± 3e-05 S/m
same,electrical conductivity,"548.35 K, 19600 kPa, m1 = 0.0288",0.000538 ± 3.2e-05 S/m
same,electrical conductivity,"548.35 K, 19600 kPa, m1 = 0.04625",0.000617 ± 3.7e-05 S/m
same,electrical conductivity,"548.35 K, 19600 kPa, m1 = 0.1015",0.000921 ± 5.5e-05 S/m
same,electrical conductivity,"571.07 K, 19463 kPa, m1 = 0.000429",0.000323 ± 2.2e-05 S/m
same,electrical conductivity,"571.07 K, 19463 kPa, m1 = 0.001139",0.000331 ± 2.2e-05 S/m
same,electrical conductivity,"571.07 K, 19463 kPa, m1 = 0.004203",0.00035 ± 2.3e-05 S/m
same,electrical conductivity,"572.82 K, 20769 kPa, m1 = 0.0002704",0.000339 ± 2.1e-05 S/m
same,electrical conductivity,"572.82 K, 20769 kPa, m1 = 0.0005746",0.000349 ± 2.1e-05 S/m
same,electrical conductivity,"572.82 K, 20769 kPa, m1 = 0.001483",0.000358 ± 2.2e-05 S/m
same,electrical conductivity,"572.82 K, 20769 kPa, m1 = 0.00287",0.000369 ± 2.2e-05 S/m
same,electrical conductivity,"572.82 K, 20769 kPa, m1 = 0.006337",0.000389 ± 2.3e-05 S/m
same,electrical conductivity,"572.82 K, 20769 kPa, m1 = 0.01032",0.000414 ± 2.5e-05 S/m
same,electrical conductivity,"572.82 K, 20769 kPa, m1 = 0.01719",0.000445 ± 2.7e-05 S/m
same,electrical conductivity,"572.82 K, 20769 kPa, m1 = 0.0361",0.000516 ± 3.1e-05 S/m
same,electrical conductivity,"572.82 K, 20769 kPa, m1 = 0.05276",0.000569 ± 3.4e-05 S/m
same,electrical conductivity,"597.9 K, 20618 kPa, m1 = 0.0004999",0.000217 ± 2.6e-05 S/m
same,electrical conductivity,"597.9 K, 20618 kPa, m1 = 0.0008991",0.000223 ± 2.7e-05 S/m
same,electrical conductivity,"597.9 K, 20618 kPa, m1 = 0.001756",0.000227 ± 2.7e-05 S/m
same,electrical conductivity,"597.9 K, 20618 kPa, m1 = 0.003156",0.000233 ± 2.8e-05 S/m
same,electrical conductivity,"597.9 K, 20618 kPa, m1 = 0.00593",0.000242 ± 2.9e-05 S/m
same,electrical conductivity,"597.9 K, 20618 kPa, m1 = 0.01032",0.000257 ± 3.1e-05 S/m
same,electrical conductivity,"597.9 K, 20618 kPa, m1 = 0.02561",0.000303 ± 3.6e-05 S/m
same,electrical conductivity,"621.13 K, 20620 kPa, m1 = 0.0003582",0.000117 ± 1.4e-05 S/m
same,electrical conductivity,"621.13 K, 20620 kPa, m1 = 0.0009385",0.000117 ± 1.4e-05 S/m
same,electrical conductivity,"621.13 K, 20620 kPa, m1 = 0.002851",0.00012 ± 1.4e-05 S/m
same,electrical conductivity,"621.13 K, 20620 kPa, m1 = 0.00498",0.000125 ± 1.5e-05 S/m
same,electrical conductivity,"621.13 K, 20620 kPa, m1 = 0.01107",0.000138 ± 1.7e-05 S/m
same,electrical conductivity,"621.13 K, 20620 kPa, m1 = 0.01908",0.000161 ± 1.9e-05 S/m
